Source: the NIST ThermoML archive (doi:10.1021/je100484n)
Numbers after ± are expanded uncertainties.

Assay: refractive index (Na D-line) (dimensionless); xn = mol fraction of the nth substance listed
Conditions: 101 kPa, Liquid

## NC1CCCCC1 [cyclohexylamine] + CCCCCCC
303.15 K, x1 = 0.0501
  refractive index: 1.38508 ± 0.00063
303.15 K, x1 = 0.1002
  refractive index: 1.38768 ± 0.00063
303.15 K, x1 = 0.1501
  refractive index: 1.39038 ± 0.00063
303.15 K, x1 = 0.2305
  refractive index: 1.39503 ± 0.00063
303.15 K, x1 = 0.3004
  refractive index: 1.3993 ± 0.00063
303.15 K, x1 = 0.401
  refractive index: 1.40584 ± 0.00064
303.15 K, x1 = 0.4497
  refractive index: 1.40915 ± 0.00064
303.15 K, x1 = 0.5597
  refractive index: 1.41708 ± 0.00064
303.15 K, x1 = 0.6001
  refractive index: 1.42001 ± 0.00064
303.15 K, x1 = 0.6498
  refractive index: 1.4238 ± 0.00064
303.15 K, x1 = 0.6994
  refractive index: 1.42771 ± 0.00064
303.15 K, x1 = 0.7999
  refractive index: 1.43588 ± 0.00065
303.15 K, x1 = 0.8992
  refractive index: 1.44452 ± 0.00065
303.15 K, x1 = 1
  refractive index: 1.45375 ± 0.00065
308.15 K, x1 = 0.0501
  refractive index: 1.38246 ± 0.00063
308.15 K, x1 = 0.1002
  refractive index: 1.38507 ± 0.00063
308.15 K, x1 = 0.1501
  refractive index: 1.38778 ± 0.00063
308.15 K, x1 = 0.2305
  refractive index: 1.39245 ± 0.00063
308.15 K, x1 = 0.3004
  refractive index: 1.39673 ± 0.00063
308.15 K, x1 = 0.401
  refractive index: 1.40324 ± 0.00064
308.15 K, x1 = 0.4497
  refractive index: 1.40655 ± 0.00064
308.15 K, x1 = 0.5597
  refractive index: 1.41446 ± 0.00064
308.15 K, x1 = 0.6001
  refractive index: 1.41739 ± 0.00064
308.15 K, x1 = 0.6498
  refractive index: 1.4212 ± 0.00064
308.15 K, x1 = 0.6994
  refractive index: 1.4251 ± 0.00064
308.15 K, x1 = 0.7999
  refractive index: 1.43327 ± 0.00065
308.15 K, x1 = 0.8992
  refractive index: 1.44189 ± 0.00065
308.15 K, x1 = 1
  refractive index: 1.45114 ± 0.00065
313.15 K, x1 = 0.0501
  refractive index: 1.37983 ± 0.00063
313.15 K, x1 = 0.1002
  refractive index: 1.38246 ± 0.00063
313.15 K, x1 = 0.1501
  refractive index: 1.38516 ± 0.00063
313.15 K, x1 = 0.2305
  refractive index: 1.38984 ± 0.00063
313.15 K, x1 = 0.3004
  refractive index: 1.3941 ± 0.00063
313.15 K, x1 = 0.401
  refractive index: 1.40059 ± 0.00064
313.15 K, x1 = 0.4497
  refractive index: 1.40392 ± 0.00064
313.15 K, x1 = 0.5597
  refractive index: 1.41182 ± 0.00064
313.15 K, x1 = 0.6001
  refractive index: 1.41478 ± 0.00064
313.15 K, x1 = 0.6498
  refractive index: 1.41859 ± 0.00064
313.15 K, x1 = 0.6994
  refractive index: 1.42248 ± 0.00064
313.15 K, x1 = 0.7999
  refractive index: 1.43065 ± 0.00065
313.15 K, x1 = 0.8992
  refractive index: 1.43928 ± 0.00065
313.15 K, x1 = 1
  refractive index: 1.44856 ± 0.00065
318.15 K, x1 = 0.0501
  refractive index: 1.37719 ± 0.00063
318.15 K, x1 = 0.1002
  refractive index: 1.37983 ± 0.00063
318.15 K, x1 = 0.1501
  refractive index: 1.38255 ± 0.00063
318.15 K, x1 = 0.2305
  refractive index: 1.38719 ± 0.00063
318.15 K, x1 = 0.3004
  refractive index: 1.39149 ± 0.00063
318.15 K, x1 = 0.401
  refractive index: 1.39797 ± 0.00064
318.15 K, x1 = 0.4497
  refractive index: 1.40129 ± 0.00064
318.15 K, x1 = 0.5597
  refractive index: 1.40915 ± 0.00064
318.15 K, x1 = 0.6001
  refractive index: 1.41215 ± 0.00064
318.15 K, x1 = 0.6498
  refractive index: 1.41595 ± 0.00064
318.15 K, x1 = 0.6994
  refractive index: 1.41981 ± 0.00064
318.15 K, x1 = 0.7999
  refractive index: 1.428 ± 0.00065
318.15 K, x1 = 0.8992
  refractive index: 1.43667 ± 0.00065
318.15 K, x1 = 1
  refractive index: 1.44599 ± 0.00065
323.15 K, x1 = 0.0501
  refractive index: 1.37451 ± 0.00063
323.15 K, x1 = 0.1002
  refractive index: 1.37717 ± 0.00063
323.15 K, x1 = 0.1501
  refractive index: 1.37991 ± 0.00063
323.15 K, x1 = 0.2305
  refractive index: 1.38449 ± 0.00063
323.15 K, x1 = 0.3004
  refractive index: 1.38874 ± 0.00063
323.15 K, x1 = 0.401
  refractive index: 1.39527 ± 0.00064
323.15 K, x1 = 0.4497
  refractive index: 1.39851 ± 0.00064
323.15 K, x1 = 0.5597
  refractive index: 1.40647 ± 0.00064
323.15 K, x1 = 0.6001
  refractive index: 1.40951 ± 0.00064
323.15 K, x1 = 0.6498
  refractive index: 1.41327 ± 0.00064
323.15 K, x1 = 0.6994
  refractive index: 1.41719 ± 0.00064
323.15 K, x1 = 0.7999
  refractive index: 1.42528 ± 0.00065
323.15 K, x1 = 0.8992
  refractive index: 1.43405 ± 0.00065
323.15 K, x1 = 1
  refractive index: 1.44336 ± 0.00065

## CC(C)(C)O [2-methylpropan-2-ol] + NC1CCCCC1
303.15 K, x1 = 1
  refractive index: 1.38222 ± 0.00062
308.15 K, x1 = 1
  refractive index: 1.37947 ± 0.00062
313.15 K, x1 = 1
  refractive index: 1.37667 ± 0.00062
318.15 K, x1 = 1
  refractive index: 1.37384 ± 0.00062
323.15 K, x1 = 1
  refractive index: 1.37097 ± 0.00062
